Our source for the IC50 values is US12612410B2 (CHILDREN'S HOSPITAL MEDICAL CENTER, priority 2020, dated 2026).

The target in one test is T1, IRAK4 (Homo sapiens, UniProt Q9NWZ3).
T1 sequence (Q9NWZ3 1-460): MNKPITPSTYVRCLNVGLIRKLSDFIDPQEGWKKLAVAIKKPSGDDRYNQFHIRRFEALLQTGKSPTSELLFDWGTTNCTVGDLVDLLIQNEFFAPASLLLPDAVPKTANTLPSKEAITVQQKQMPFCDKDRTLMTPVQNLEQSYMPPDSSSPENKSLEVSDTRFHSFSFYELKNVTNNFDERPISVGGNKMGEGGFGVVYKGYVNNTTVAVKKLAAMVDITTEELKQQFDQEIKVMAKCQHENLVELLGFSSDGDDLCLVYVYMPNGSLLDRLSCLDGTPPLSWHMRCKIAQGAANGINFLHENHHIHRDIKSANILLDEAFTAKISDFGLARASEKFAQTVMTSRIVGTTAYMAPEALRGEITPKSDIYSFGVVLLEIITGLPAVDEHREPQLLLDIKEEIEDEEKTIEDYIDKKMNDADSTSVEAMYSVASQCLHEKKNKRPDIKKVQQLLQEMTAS
In words: RBC HotSpot Kinase Assay, IRAK4. Further details: purchased Reaction Biology (RBC), HotSpot kinase assay. The following applies: isolated kinase, 33P-ATP. The test is classed as biochemical. A digest of the protocol: (§1)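 Functional radiometric activity assay: kinase + substrate + cofactors in Hepes pH 7.5/MgCl2/EGTA/Brij35/BSA/Na3VO4/DTT, 1% DMSO; cmpd preincubation 20 min RT; 33P-ATP start, 2 h RT; P81 filter-binding readout.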

Another test has as its system MOLM14 D835Y cells. Kind of test: MOLM14 D835Y cell viability assay (Cell Titer Glo). The test is classed as cell-based. A digest of the protocol: (§2)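 MOLM14 cells carrying FLT3 D835Y or F691L were seeded at 1000 cells/well in RPMI-1640 with 20% FBS and dosed at 22 concentrations, 1:2 dilutions from 10 μM. Viability after 48 h by Cell Titer Glo luminescence; 2.3 μM bortezomib as cytotoxic control.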
On the technique in general: In ATP-based viability assays light output follows the ATP content of the culture.

The next test relates to MOLM14 F691L cells. In words: MOLM14 F691L cell viability assay (Cell Titer Glo). In kind it is cell-based. The essentials:
as §2

Another test deals with T2, FLT3 (Homo sapiens, UniProt P36888).
T2 sequence (P36888 27-993): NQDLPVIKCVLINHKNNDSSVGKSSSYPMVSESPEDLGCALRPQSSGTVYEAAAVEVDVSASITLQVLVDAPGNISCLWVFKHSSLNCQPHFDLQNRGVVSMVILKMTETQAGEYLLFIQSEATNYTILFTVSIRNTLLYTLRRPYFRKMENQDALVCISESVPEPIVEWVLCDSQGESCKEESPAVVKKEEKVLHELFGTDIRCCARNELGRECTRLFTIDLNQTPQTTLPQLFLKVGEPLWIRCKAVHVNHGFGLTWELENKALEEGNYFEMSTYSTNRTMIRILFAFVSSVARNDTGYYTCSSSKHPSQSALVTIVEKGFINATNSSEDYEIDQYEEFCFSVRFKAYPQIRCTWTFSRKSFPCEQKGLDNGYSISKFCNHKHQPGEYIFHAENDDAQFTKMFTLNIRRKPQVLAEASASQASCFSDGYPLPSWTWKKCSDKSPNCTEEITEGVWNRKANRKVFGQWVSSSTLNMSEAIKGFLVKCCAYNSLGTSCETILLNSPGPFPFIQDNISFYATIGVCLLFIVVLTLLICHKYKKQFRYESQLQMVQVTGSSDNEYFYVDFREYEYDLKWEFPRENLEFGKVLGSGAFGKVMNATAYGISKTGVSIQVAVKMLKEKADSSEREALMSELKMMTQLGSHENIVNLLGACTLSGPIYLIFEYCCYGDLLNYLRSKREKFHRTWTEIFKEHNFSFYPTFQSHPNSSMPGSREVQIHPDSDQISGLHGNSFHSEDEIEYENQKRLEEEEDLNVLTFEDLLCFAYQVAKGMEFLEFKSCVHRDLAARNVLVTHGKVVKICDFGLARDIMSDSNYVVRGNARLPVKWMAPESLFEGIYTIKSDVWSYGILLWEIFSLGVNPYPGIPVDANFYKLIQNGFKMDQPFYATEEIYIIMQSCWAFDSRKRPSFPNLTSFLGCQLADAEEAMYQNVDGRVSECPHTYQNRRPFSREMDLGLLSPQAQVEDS
Kind of test: RBC HotSpot Kinase Assay, FLT3. The following applies: isolated kinase, 33P-ATP. Set-up: purchased Reaction Biology (RBC), HotSpot kinase assay. The test is classed as biochemical. A digest of the protocol:
as §1

For orientation: IC50 means the concentration that gives 50% inhibition. For the compound `CC(O)(c1cn2c(-c3cccc(N[C@H]4CNC[C@@H]4F)n3)cnc2cn1)C(F)(F)F` (single isomer, unassigned) [Compound 77], the IC50 against IRAK4 was found to be 3 nM; with MOLM14 D835Y cells (48 hours), 106 nM; with MOLM14 F691L cells (Homo sapiens, MOLM-14, 48 h), 376 nM; against FLT3, 0.9 nM.
With `CC(O)(c1cn2c(-c3cccc(N[C@H]4CNC[C@@H]4F)n3)cnc2cn1)C(F)(F)F` (single isomer, unassigned) [Compound 78], the 50% inhibitory concentration (IC50) is under 0.5 nM against IRAK4, 47 nM with MOLM14 D835Y cells (48 hours), 299 nM in the test with MOLM14 F691L cells (48 hours) and under 0.5 nM at FLT3.
In the case of `CC(O)(c1cn2c(-c3cccc(N[C@H]4CNCC[C@@H]4F)n3)cnc2cn1)C(F)(F)F` (single isomer, unassigned) [Compound 80], the IC50 is 3 nM against IRAK4; 68 nM with MOLM14 D835Y cells (Homo sapiens, MOLM-14, 48 h); 196 nM in the test with MOLM14 F691L cells (Homo sapiens, MOLM-14, 48 h); 0.6 nM at FLT3.
As to `CC(O)(c1cn2c(-c3cccc(N[C@@H]4CCCNC4)n3)cnc2cn1)C(F)(F)F` (single isomer, unassigned) [Compound 81], the 50% inhibitory concentration (IC50) against IRAK4 was under 0.5 nM; in the test on MOLM14 D835Y cells (Homo sapiens, MOLM-14, 48 h) it was 30 nM; with MOLM14 F691L cells (Homo sapiens, MOLM-14, 48 h), 211 nM; on FLT3, under 0.5 nM.
Regarding `CC(O)(c1cn2c(-c3cccc(N[C@H]4CNCC[C@@H]4F)n3)cnc2cn1)C(F)(F)F` (single isomer, unassigned) [Compound 82], the 50% inhibitory concentration (IC50) against IRAK4 is under 0.5 nM; in the test on MOLM14 D835Y cells (48 hours), 34 nM; with MOLM14 F691L cells (48 hours) it was 157 nM; at FLT3, under 0.5 nM.
For the compound `CC1(c2cn3c(-c4cccc(N[C@H]5CNC[C@@H]5F)n4)cnc3cn2)CC1` [Compound 1, N-((3S,4S)-4-fluoropyrrolidin-3-yl)-6-(6-(1-methylcyclopropyl)imidazo[1,2-a]pyrazin-3-yl)pyridin-2-amine], the half-maximal inhibitory concentration (IC50) on IRAK4 was 0.5 nM; in the test on MOLM14 D835Y cells (Homo sapiens, MOLM-14, 48 h), 18 nM; with MOLM14 F691L cells (Homo sapiens, MOLM-14, 48 h) it was 169 nM; on FLT3, 0.6 nM.
As to `CC1(c2cn3c(-c4cccc(N[C@@H]5CCNC5)n4)cnc3cn2)CC1` [Compound 3, (R)-6-(6-(1-methylcyclopropyl)imidazo[1,2-a]pyrazin-3-yl)-N-(pyrrolidin-3-yl)pyridin-2-amine], the half-inhibitory concentration (IC50) on IRAK4 was 0.9 nM; in the test with MOLM14 D835Y cells (Homo sapiens, MOLM-14, 48 h), 6 nM; against FLT3, 0.7 nM.
Regarding `CC1(c2cn3c(-c4cccc(N[C@H]5CNCC56CC6)n4)cnc3cn2)CC1` [Compound 5, (R)-N-(6-(6-(1-methylcyclopropyl)imidazo[1,2-a]pyrazin-3-yl)pyridin-2-yl)-5-azaspiro[2.4]heptan-7-amine], the IC50 against IRAK4 is under 0.5 nM; in the test with MOLM14 D835Y cells (Homo sapiens, MOLM-14, 48 h), 2 nM; in the test with MOLM14 F691L cells (Homo sapiens, MOLM-14, 48 h), 34 nM; on FLT3 it was under 0.5 nM.
As to `FC(F)(F)C1(c2cn3c(-c4cccc(N[C@@H]5CCNC5)n4)cnc3cn2)CC1` [Compound 10, (R)-N-(pyrrolidin-3-yl)-6-(6-(1-(trifluoromethyl)cyclopropyl)imidazo[1,2-a]pyrazin-3-yl)pyridin-2-amine], the concentration for half-maximal inhibition (IC50) against IRAK4 was 2 nM; in the test on MOLM14 D835Y cells (Homo sapiens, MOLM-14, 48 h), 14 nM; in the test on MOLM14 F691L cells (Homo sapiens, MOLM-14, 48 h) it was 168 nM; against FLT3 it was under 0.5 nM.
On the same counts, the results for `FC(F)c1cn2c(-c3cccc(N[C@H]4CNC[C@@H]4F)n3)cnc2cn1` [Compound 16, 6-(6-(difluoromethyl)imidazo[1,2-a]pyrazin-3-yl)-N-((3S,4S)-4-fluoropyrrolidin-3-yl)pyridin-2-amine] are 1 nM, 21 nM, 226 nM and under 0.5 nM.
With `FC(F)c1cn2c(-c3cccc(N[C@H]4CNCC[C@@H]4F)n3)cnc2cn1` [Compound 25, 6-(6-(difluoromethyl)imidazo[1,2-a]pyrazin-3-yl)-N-((3S,4S)-4-fluoropiperidin-3-yl)pyridin-2-amine], the IC50 against IRAK4 is 1 nM; with MOLM14 D835Y cells (Homo sapiens, MOLM-14, 48 h) it was 9 nM; in the test with MOLM14 F691L cells (Homo sapiens, MOLM-14, 48 h) it was 74 nM; against FLT3, under 0.5 nM.
With `CC(C)(O)c1cn2c(-c3cccc(N[C@@H]4CCCNC4)n3)cnc2cn1` [Compound 30, (R)-2-(3-(6-(piperidin-3-ylamino)pyridin-2-yl)imidazo[1,2-a]pyrazin-6-yl)propan-2-ol], the IC50 at IRAK4 is under 0.5 nM; with MOLM14 D835Y cells (Homo sapiens, MOLM-14, 48 h), 75 nM; with MOLM14 F691L cells (Homo sapiens, MOLM-14, 48 h) it was 381 nM; on FLT3, under 0.5 nM.
In the case of `CC(C)(O)c1cn2c(-c3cccc(N[C@H]4CNCC[C@@H]4F)n3)cnc2cn1` [Compound 31, 2-(3-(6-(((3S,4S)-4-fluoropiperidin-3-yl)amino)pyridin-2-yl)imidazo[1,2-a]pyrazin-6-yl)propan-2-ol], the IC50 against IRAK4 is under 0.5 nM; in the test with MOLM14 D835Y cells (Homo sapiens, MOLM-14, 48 h), 63 nM; with MOLM14 F691L cells (Homo sapiens, MOLM-14, 48 h) it was 249 nM; at FLT3, under 0.5 nM.
In the case of `CC(C)(O)c1cn2c(-c3nc(N[C@H]4CNC[C@@H]4F)c(F)cc3F)cnc2cn1` [Compound 33, 2-(3-(3,5-difluoro-6-(((3S,4S)-4-fluoropyrrolidin-3-yl)amino)pyridin-2-yl)imidazo[1,2-a]pyrazin-6-yl)propan-2-ol], the IC50 is under 0.5 nM at IRAK4; 168 nM in the test with MOLM14 D835Y cells (Homo sapiens, MOLM-14, 48 h); 2660 nM with MOLM14 F691L cells (Homo sapiens, MOLM-14, 48 h); 0.6 nM against FLT3.
In the case of `CC(C)(O)c1cn2c(-c3nc(N[C@@H]4CCCNC4)c(F)cc3F)cnc2cn1` [Compound 34, (R)-2-(3-(3,5-difluoro-6-(piperidin-3-ylamino)pyridin-2-yl)imidazo[1,2-a]pyrazin-6-yl)propan-2-ol], the IC50 was 2 nM at IRAK4; 106 nM in the test with MOLM14 D835Y cells (Homo sapiens, MOLM-14, 48 h); 1330 nM in the test on MOLM14 F691L cells (Homo sapiens, MOLM-14, 48 h); 4 nM on FLT3.
`CC(C)(O)c1cn2c(-c3nc(N[C@H]4CNCC[C@@H]4F)c(F)cc3F)cnc2cn1` [Compound 35, 2-(3-(3,5-difluoro-6-(((3S,4S)-4-fluoropiperidin-3-yl)amino)pyridin-2-yl)imidazo[1,2-a]pyrazin-6-yl)propan-2-ol]: the IC50 on IRAK4 was 0.8 nM; with MOLM14 D835Y cells (Homo sapiens, MOLM-14, 48 h) it was 94 nM; with MOLM14 F691L cells (Homo sapiens, MOLM-14, 48 h), 841 nM; against FLT3 it was 1 nM.
Regarding `FC(F)(F)COc1cn2c(-c3cccc(N[C@@H]4CCNC4)n3)cnc2cn1` [Compound 38, (R)-N-(pyrrolidin-3-yl)-6-(6-(2,2,2-trifluoroethoxy)imidazo[1,2-a]pyrazin-3-yl)pyridin-2-amine], the IC50 at IRAK4 is 0.8 nM; with MOLM14 D835Y cells (Homo sapiens, MOLM-14, 48 h), 23 nM; at FLT3 it was under 0.5 nM.
Regarding `Cn1cc(-c2cn3c(-c4cccc(N[C@@H]5CCCNC5)n4)cnc3cn2)cn1` [Compound 43, (R)-6-(6-(1-methyl-1H-pyrazol-4-yl)imidazo[1,2-a]pyrazin-3-yl)-N-(piperidin-3-yl)pyridin-2-amine], the IC50 on IRAK4 is 12 nM; in the test with MOLM14 D835Y cells (Homo sapiens, MOLM-14, 48 h), 8 nM; in the test with MOLM14 F691L cells (Homo sapiens, MOLM-14, 48 h) it was 79 nM; against FLT3, under 0.5 nM.
For the compound `FC(F)COc1cn2c(-c3cccc(N[C@H]4CNC[C@@H]4F)n3)cnc2cn1` [Compound 58, 6-(6-(2,2-difluoroethoxy)imidazo[1,2-a]pyrazin-3-yl)-N-((3S,4S)-4-fluoropyrrolidin-3-yl)pyridin-2-amine], the IC50 was found to be 1 nM against IRAK4; 30 nM with MOLM14 D835Y cells (Homo sapiens, MOLM-14, 48 h); 0.7 nM against FLT3.
